Target: Enteropeptidase (Homo sapiens, UniProt P98073)
Assay: Inhibition Assay: Inhibition assay using human enteropeptidase.

Enteropeptidase, sequence (P98073 2-784 limits assumed): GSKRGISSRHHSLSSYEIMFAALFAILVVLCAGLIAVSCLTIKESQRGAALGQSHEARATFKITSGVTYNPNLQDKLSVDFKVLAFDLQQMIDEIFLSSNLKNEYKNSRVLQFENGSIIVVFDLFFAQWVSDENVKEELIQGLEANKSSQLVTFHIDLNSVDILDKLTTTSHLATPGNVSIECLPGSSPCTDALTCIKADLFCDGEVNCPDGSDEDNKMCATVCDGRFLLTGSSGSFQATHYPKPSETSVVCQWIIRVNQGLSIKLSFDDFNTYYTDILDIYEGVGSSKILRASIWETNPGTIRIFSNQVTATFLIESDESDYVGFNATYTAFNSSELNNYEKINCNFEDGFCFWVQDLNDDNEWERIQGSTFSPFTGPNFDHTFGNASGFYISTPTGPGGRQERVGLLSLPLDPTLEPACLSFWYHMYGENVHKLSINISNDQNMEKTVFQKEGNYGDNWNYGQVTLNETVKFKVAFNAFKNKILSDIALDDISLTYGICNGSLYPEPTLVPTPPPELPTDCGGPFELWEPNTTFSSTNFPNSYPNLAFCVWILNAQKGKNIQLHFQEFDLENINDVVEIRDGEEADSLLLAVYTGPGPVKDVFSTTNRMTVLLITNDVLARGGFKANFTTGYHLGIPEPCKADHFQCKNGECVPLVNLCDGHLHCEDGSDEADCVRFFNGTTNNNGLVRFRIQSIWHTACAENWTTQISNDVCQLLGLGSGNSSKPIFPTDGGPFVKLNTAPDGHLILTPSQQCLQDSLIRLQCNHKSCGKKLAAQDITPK
Enteropeptidase, sequence (P98073 785-1019 limits assumed): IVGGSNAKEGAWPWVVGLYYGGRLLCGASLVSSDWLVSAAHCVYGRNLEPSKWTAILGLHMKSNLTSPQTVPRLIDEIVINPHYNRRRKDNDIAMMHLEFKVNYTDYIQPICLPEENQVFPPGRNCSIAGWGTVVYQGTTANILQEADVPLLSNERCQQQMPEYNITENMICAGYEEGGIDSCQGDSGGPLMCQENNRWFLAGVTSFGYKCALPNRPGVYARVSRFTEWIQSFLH

| Ki | SMILES |
| --- | --- |
| 0.6 nM | N=C(N)c1ccc(OC(=O)c2ccc(CCC(=O)N(CCC(=O)O)CC(=O)O)o2)cc1 |
| 0.68 nM | CC(Cc1ccc(C(=O)Oc2ccc(C(=N)N)cc2)o1)C(=O)O[C@H](CC(=O)O)C(=O)O (stereo partly drawn) |
| 3.7 nM | CC(Cc1ncc(C(=O)Oc2ccc(C(=N)N)cc2F)s1)C(=O)N[C@@H](CC(=O)O)C(=O)O (stereo partly drawn) |
